Counter-ions that a name gives are not always drawn.

As usually defined, the IC50 is the midpoint of a concentration-inhibition curve.

One assay has as its target hNav 1.7 (Homo sapiens (Human), UniProt Q15858). The experiment in a line: Electrophysiological evaluation, automated patch clamp IonWorks Quattro (Population Patch Clamp mode). To be noted: HEK293A cells stably expressing hNav 1.7/β1/β2; response to second depolarization pulse, pre-pulse potential set to V1/2; read-out: hNav1.7 IC50. It is filed as cell-based. (The patch-clamp technique gives a direct electrical read-out from membranes.)

Assay [1] deals with mice and rats affected by thermal hyperalgesia. The experiment in a line: Thermal hyperalgesia assay.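 Also: measurement times set by the study director and not disclosed.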 Particulars: oral administration, constant dose, against the vehicle treatment group; latency to escape behaviors after thermal stimulation of hind paw. Type of assay: in vivo.

Sequence of hNav 1.7 (Q15858 whole entry): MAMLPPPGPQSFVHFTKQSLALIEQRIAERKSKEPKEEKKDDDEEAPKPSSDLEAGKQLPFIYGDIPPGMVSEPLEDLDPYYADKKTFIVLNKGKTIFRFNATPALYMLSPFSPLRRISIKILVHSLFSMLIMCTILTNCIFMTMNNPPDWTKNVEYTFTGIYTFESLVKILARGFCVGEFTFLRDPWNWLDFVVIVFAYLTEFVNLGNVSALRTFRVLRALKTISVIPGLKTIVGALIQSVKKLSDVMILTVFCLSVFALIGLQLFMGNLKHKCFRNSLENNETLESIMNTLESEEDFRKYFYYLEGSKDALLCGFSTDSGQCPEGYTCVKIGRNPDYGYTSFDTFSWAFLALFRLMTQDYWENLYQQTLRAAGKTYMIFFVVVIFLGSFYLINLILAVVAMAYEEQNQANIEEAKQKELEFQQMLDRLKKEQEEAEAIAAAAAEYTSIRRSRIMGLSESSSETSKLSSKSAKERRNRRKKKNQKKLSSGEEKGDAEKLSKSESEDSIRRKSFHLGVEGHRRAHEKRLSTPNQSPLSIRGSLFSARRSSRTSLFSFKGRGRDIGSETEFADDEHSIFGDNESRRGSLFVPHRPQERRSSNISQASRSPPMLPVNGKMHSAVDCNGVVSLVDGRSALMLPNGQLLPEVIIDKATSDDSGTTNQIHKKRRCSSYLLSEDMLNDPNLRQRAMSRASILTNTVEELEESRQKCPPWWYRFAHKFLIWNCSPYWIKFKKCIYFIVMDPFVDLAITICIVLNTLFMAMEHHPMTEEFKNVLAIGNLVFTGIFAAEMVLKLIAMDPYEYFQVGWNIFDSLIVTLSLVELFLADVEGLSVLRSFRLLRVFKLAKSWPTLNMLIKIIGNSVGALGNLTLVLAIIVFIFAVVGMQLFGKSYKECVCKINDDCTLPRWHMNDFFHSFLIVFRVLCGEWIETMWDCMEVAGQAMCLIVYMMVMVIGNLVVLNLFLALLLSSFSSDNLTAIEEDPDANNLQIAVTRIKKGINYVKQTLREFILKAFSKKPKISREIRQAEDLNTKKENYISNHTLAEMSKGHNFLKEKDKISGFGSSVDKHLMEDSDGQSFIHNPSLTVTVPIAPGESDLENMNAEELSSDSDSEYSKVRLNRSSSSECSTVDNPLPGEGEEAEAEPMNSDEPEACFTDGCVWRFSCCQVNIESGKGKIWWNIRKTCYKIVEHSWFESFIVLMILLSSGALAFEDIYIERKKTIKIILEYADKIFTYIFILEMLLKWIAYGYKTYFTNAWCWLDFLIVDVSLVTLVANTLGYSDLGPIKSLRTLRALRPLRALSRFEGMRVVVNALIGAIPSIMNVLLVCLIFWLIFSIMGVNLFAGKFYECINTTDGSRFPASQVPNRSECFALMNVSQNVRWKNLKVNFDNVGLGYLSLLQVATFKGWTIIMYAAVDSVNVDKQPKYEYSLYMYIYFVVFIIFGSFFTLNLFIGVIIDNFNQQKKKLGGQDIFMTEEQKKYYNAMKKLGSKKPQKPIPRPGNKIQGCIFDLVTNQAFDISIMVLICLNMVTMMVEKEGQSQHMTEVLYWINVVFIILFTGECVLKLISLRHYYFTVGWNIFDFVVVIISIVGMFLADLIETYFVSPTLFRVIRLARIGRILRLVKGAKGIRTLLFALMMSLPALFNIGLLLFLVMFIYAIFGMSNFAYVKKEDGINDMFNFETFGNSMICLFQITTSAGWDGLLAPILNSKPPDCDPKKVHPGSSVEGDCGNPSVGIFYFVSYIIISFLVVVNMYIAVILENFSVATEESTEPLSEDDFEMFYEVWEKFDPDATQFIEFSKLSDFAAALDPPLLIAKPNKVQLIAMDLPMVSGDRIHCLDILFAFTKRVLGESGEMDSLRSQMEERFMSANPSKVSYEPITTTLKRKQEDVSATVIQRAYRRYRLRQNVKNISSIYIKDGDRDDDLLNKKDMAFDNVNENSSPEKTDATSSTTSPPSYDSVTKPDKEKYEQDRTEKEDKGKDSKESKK
Sequence of hNav 1.7 (Q07699 19-218 partner): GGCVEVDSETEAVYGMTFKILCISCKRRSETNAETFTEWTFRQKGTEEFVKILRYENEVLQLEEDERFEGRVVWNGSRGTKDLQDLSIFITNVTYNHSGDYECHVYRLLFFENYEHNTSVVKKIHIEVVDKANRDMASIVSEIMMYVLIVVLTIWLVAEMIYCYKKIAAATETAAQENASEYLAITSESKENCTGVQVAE
Sequence of hNav 1.7 (O60939 30-215 partner): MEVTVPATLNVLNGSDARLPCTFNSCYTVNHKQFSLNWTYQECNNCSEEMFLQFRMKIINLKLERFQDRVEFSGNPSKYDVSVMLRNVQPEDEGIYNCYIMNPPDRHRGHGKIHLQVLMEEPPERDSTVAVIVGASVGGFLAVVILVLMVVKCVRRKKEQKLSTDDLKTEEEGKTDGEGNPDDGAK

Regarding `Cc1c(O[C@H]2CCCC[C@@H]2c2ccnn2C)ccc(S(=O)(=O)Nc2ccncn2)c1F` (relative stereo) [Example 66, 2-Fluoro-3-methyl-4-{[(1S*,2R*)-2-(1-methyl-1H-pyrazol-5-yl)cyclohexyl]oxy}-N-(pyrimidin-4-yl)benzenesulfonamide], the IC50 on hNav 1.7 was determined as 17 nM. The “Ratio of improving pain score (%)” value in assay [1] was “A (“A” when the rate was 61 to 100%)”.
For the compound `O=S(=O)(Nc1ccncn1)c1cc(F)c(O[C@H]2CCCC[C@@H]2c2cn[nH]c2)cc1F` (relative stereo) [Example 33, 2,5-Difluoro-4-{[(1S*,2R*)-2-(1H-pyrazol-4-yl)cyclohexyl]oxy}-N-(pyrimidin-4-yl)benzenesulfonamide], the IC50 on hNav 1.7 worked out at 300 nM. Further, the “Ratio of improving pain score (%)” value in assay [1] is recorded as “A (“A” when the rate was 61 to 100%)”.
Take `Cn1nccc1[C@H]1CCC(F)(F)C[C@@H]1Oc1ccc(S(=O)(=O)Nc2ccncn2)c(F)c1` (relative stereo) [Example 110, 4-{[(1S*,2R*)-5,5-Difluoro-2-(1-methyl-1H-pyrazol-5-yl)cyclohexyl]oxy}-2-fluoro-N-(pyrimidin-4-yl)benzenesulfonamide]: the IC50 on hNav 1.7 was found to be 300 nM. In addition, the “Ratio of improving pain score (%)” value in assay [1] is “B (“B” when the rate was 31 to 60%)”.
Take `CCn1nccc1[C@H]1CCCC[C@@H]1Oc1ccc(S(=O)(=O)Nc2ccncn2)c(F)c1F` (relative stereo) [Example 41, 4-{[(1S*,2R*)-2-(1-Ethyl-1H-pyrazol-5-yl)cyclohexyl]oxy}-2,3-difluoro-N-(pyrimidin-4-yl)benzenesulfonamide]: the IC50 at hNav 1.7 came out at 160 nM. Besides, the “Ratio of improving pain score (%)” value in assay [1] is “B (“B” when the rate was 31 to 60%)”.
In the case of `Cc1ncccc1[C@H]1CCCC[C@@H]1Oc1cc(F)c(S(=O)(=O)Nc2ccncn2)cc1F` (relative stereo) [Example 70, 2,5-Difluoro-4-{[(1S*,2R*)-2-(2-methylpyridin-3-yl)cyclohexyl]oxy}-N-(pyrimidin-4-yl)benzenesulfonamide], the IC50 at hNav 1.7 stood at 330 nM.
Turning to `Cn1nccc1[C@H]1CCCC[C@@H]1Oc1cc(F)c(S(=O)(=O)Nc2cscn2)cc1Cl` (relative stereo) [Example 10, 5-Chloro-2-fluoro-4-{[(1S*,2R*)-2-(1-methyl-1H-pyrazol-5-yl)cyclohexyl]oxy}-N-(1,3-thiazol-4-yl)benzenesulfonamide Na salt], on hNav 1.7, the IC50 amounted to 30 nM.
Turning to `O=S(=O)(Nc1ccncn1)c1cc(F)c(O[C@H]2CCCC[C@@H]2c2cccnc2)cc1F` (relative stereo) [Example 39, 2,5-Difluoro-4-{[(1S*,2R*)-2-(pyridin-3-yl)cyclohexyl]oxy}-N-(pyrimidin-4-yl)benzenesulfonamide], the IC50 at hNav 1.7 was determined as 1000 nM.
As to `Cc1cc(S(=O)(=O)Nc2ccncn2)c(F)cc1O[C@@H]1CCC[C@H]1c1ccn[nH]1` [Example 149, 2-Fluoro-5-methyl-4-{[(1R,2S)-2-(1H-pyrazol-5-yl)cyclopentyl]oxy}-N-(pyrimidin-4-yl)benzenesulfonamide], the IC50 at hNav 1.7 was 32000 nM.
The same measure, in the same setting: the result for `O=S(=O)(Nc1ccncn1)c1cc(Cl)c(O[C@H]2CC(F)(F)CC[C@@H]2c2ccn[nH]2)cc1F` (relative stereo) [Example 156, 5-Chloro-4-{[(1S*,2R*)-5,5-difluoro-2-(1H-pyrazol-5-yl)cyclohexyl]oxy}-2-fluoro-N-(pyrimidin-4-yl)benzenesulfonamide] reads 41 nM.
For the compound `Cn1nccc1[C@H]1CC[C@@H](O)C[C@@H]1Oc1cc(F)c(S(=O)(=O)Nc2ccncn2)cc1Cl` (relative stereo) [Example 160, 5-Chloro-2-fluoro-4-{[(1S*,2R*,5R*)-5-hydroxy-2-(1-methyl-1H-pyrazol-5-yl)cyclohexyl]oxy}-N-(pyrimidin-4-yl)benzenesulfonamide], the IC50 at hNav 1.7 was 560 nM.
Turning to `Cn1nccc1[C@H]1CCC[C@@H]1Oc1ccc(S(=O)(=O)Nc2cc(F)ncn2)cc1F` (relative stereo) [Example 17, 3-Fluoro-N-(6-fluoropyrimidin-4-yl)-4-{[(1S*,2R*)-2-(1-methyl-1H-pyrazol-5-yl)cyclopentyl]oxy}benzenesulfonamide], the IC50 on hNav 1.7 was determined as 510 nM.
On to `O=S(=O)(Nc1ncns1)c1cc(F)c(O[C@H]2CCCCC[C@@H]2c2ccccc2)cc1F` (relative stereo) [Example 7, 2,5-Difluoro-4-{[(1S*,2R*)-2-phenylcycloheptyl]oxy}-N-(1,2,4-thiadiazol-5-yl)benzenesulfonamide], for which the IC50 at hNav 1.7 is 450 nM.
For `O=S(=O)(Nc1ccncn1)c1cc(Cl)c(O[C@@H]2CCC[C@H]2c2ccn[nH]2)cc1F` [Example 151, 5-Chloro-2-fluoro-4-{[(1R,2S)-2-(1H-pyrazol-5-yl)cyclopentyl]oxy}-N-(pyrimidin-4-yl)benzenesulfonamide], the IC50 on hNav 1.7 is 33000 nM.
`Cn1nccc1[C@H]1CC(F)(F)CC[C@@H]1Oc1ccc(S(=O)(=O)Nc2ccncn2)c(F)c1` (relative stereo) [Example 130, 4-{[(1S*,2R*)-4,4-Difluoro-2-(1-methyl-1H-pyrazol-5-yl)cyclohexyl]oxy}-2-fluoro-N-(pyrimidin-4-yl)benzenesulfonamide]: the IC50 on hNav 1.7 was 880 nM.
`Cc1cc(S(=O)(=O)Nc2ccncn2)c(F)cc1O[C@H]1CCCC[C@@H]1c1cn[nH]c1` [Example 172, 2-Fluoro-5-methyl-4-{[(1S,2R)-2-(1H-pyrazol-4-yl)cyclohexyl]oxy}-N-(pyrimidin-4-yl)benzenesulfonamide]: the IC50 on hNav 1.7 is 34 nM.
For `CC(=O)O[C@@H]1CC[C@H](Oc2cc(F)c(S(=O)(=O)Nc3ccncn3)cc2Cl)[C@@H](c2ccnn2C)C1` [Example 166, (1R,3R,4S)-4-[2-Chloro-5-fluoro-4-(pyrimidin-4-ylsulfamoyl)phenoxy]-3-(1-methyl-1H-pyrazol-5-yl)cyclohexyl acetate], the IC50 on hNav 1.7 came out at 59 nM.
Regarding `O=S(=O)(Nc1ccncn1)c1cc(F)c(O[C@H]2CCCC[C@@H]2c2ccn[nH]2)cc1F` (relative stereo) [Example 22, 2,5-Difluoro-4-{[(1S*,2R*)-2-(1H-pyrazol-5-yl)cyclohexyl]oxy}-N-(pyrimidin-4-yl)benzenesulfonamide], the IC50 at hNav 1.7 worked out at 520 nM.
With `CO[C@H]1C[C@H](Oc2cc(F)c(S(=O)(=O)Nc3ccncn3)cc2F)[C@@H](c2ccnn2C)C1` (relative stereo) [Example 121, 2,5-Difluoro-4-{[(1S*,2R*,4R*)-4-methoxy-2-(1-methyl-1H-pyrazol-5-yl)cyclopentyl]oxy}-N-(pyrimidin-4-yl)benzenesulfonamide], the IC50 on hNav 1.7 was 930 nM.
As to `O=S(=O)(Nc1ccncn1)c1c(F)cc(O[C@@H]2CCCC[C@H]2c2cn[nH]c2)cc1F` [Example 169, 2,6-Difluoro-4-{[(1R,2S)-2-(1H-pyrazol-4-yl)cyclohexyl]oxy}-N-(pyrimidin-4-yl)benzenesulfonamide], the IC50 on hNav 1.7 was > 10000 nM.
Turning to `O=S(=O)(Nc1ncns1)c1cc(F)c(O[C@H]2CCCC[C@@H]2c2ccccc2)cc1F` [Example 2, 2,5-Difluoro-4-{[(1S,2R)-2-phenylcyclohexyl]oxy}-N-(1,2,4-thiadiazol-5-yl)benzenesulfonamide], the IC50 at hNav 1.7 is 20 nM.
`Cn1nccc1[C@H]1C[C@H](O)CC[C@@H]1Oc1cc(F)c(S(=O)(=O)Nc2ccncn2)cc1Cl` (relative stereo) [Example 161, 5-Chloro-2-fluoro-4-{[(1S*,2R*,4R*)-4-hydroxy-2-(1-methyl-1H-pyrazol-5-yl)cyclohexyl]oxy}-N-(pyrimidin-4-yl)benzenesulfonamide]: on hNav 1.7, the IC50 came to 130 nM.
As for `CCn1nccc1[C@H]1CCCC[C@@H]1Oc1cc(F)c(S(=O)(=O)Nc2cscn2)cc1Cl` (relative stereo) [Example 12, 5-Chloro-4-{[(1S*,2R*)-2-(1-ethyl-1H-pyrazol-5-yl)cyclohexyl]oxy}-2-fluoro-N-(1,3-thiazol-4-yl)benzenesulfonamide], at hNav 1.7, the IC50 worked out at 120 nM.
For `O=S(=O)(Nc1ncns1)c1cc(F)c(O[C@H]2CCC[C@@H]2c2ccccc2)cc1F` (relative stereo) [Example 6, 2,5-Difluoro-4-{[(1S*,2R*)-2-phenylcyclopentyl]oxy}-N-(1,2,4-thiadiazol-5-yl)benzenesulfonamide], on hNav 1.7, the IC50 is 610 nM.
Same read-out and setting: the value for `Cc1cc(S(=O)(=O)Nc2ccncn2)c(F)cc1O[C@@H]1CCCC[C@H]1c1cn[nH]c1` [Example 170, 2-Fluoro-5-methyl-4-{[(1R,2S)-2-(1H-pyrazol-4-yl)cyclohexyl]oxy}-N-(pyrimidin-4-yl)benzenesulfonamide] was > 10000 nM; that for `Cn1nccc1[C@H]1CCC[C@@H]1Oc1ccc(S(=O)(=O)Nc2nccs2)cc1F` (relative stereo) [Example 16, 3-Fluoro-4-{[(1S*,2R*)-2-(1-methyl-1H-pyrazol-5-yl)cyclopentyl]oxy}-N-(1,3-thiazol-2-yl)benzenesulfonamide] was 230 nM.
Consider `Cn1nccc1[C@H]1CCC[C@@H]1Oc1cc(Cl)c(S(=O)(=O)Nc2ccncn2)cc1F` (relative stereo) [Example 19, 2-Chloro-5-fluoro-4-{[(1S*,2R*)-2-(1-methyl-1H-pyrazol-5-yl)cyclopentyl]oxy}-N-(pyrimidin-4-yl)benzenesulfonamide], for which the IC50 at hNav 1.7 amounted to 510 nM.
Regarding `O=S(=O)(Nc1ncns1)c1cc(F)c(O[C@@H]2CCCC[C@H]2c2ccccc2)cc1F` [Example 75, 2,5-Difluoro-4-{[(1R,2S)-2-phenylcyclohexyl]oxy}-N-(1,2,4-thiadiazol-5-yl)benzenesulfonamide], the IC50 on hNav 1.7 is > 10000 nM.
Consider `Nc1cc([C@H]2CCC[C@@H]2Oc2cc(F)c(S(=O)(=O)Nc3ccncn3)cc2F)ccn1` (relative stereo) [Example 36, 4-{[(1S*,2R*)-2-(2-Aminopyridin-4-yl)cyclopentyl]oxy}-2,5-difluoro-N-(pyrimidin-4-yl)benzenesulfonamide], for which, on hNav 1.7, the IC50 is 500 nM.

Values taken from patent US9493448B2, “Cycloalkane derivatives” (Daiichi Sankyo Company, Limited, priority 2012, dated 2016).
